Reference: US4649160A, “Substituted phenoxy-aminopropanols” (Hoffmann-La Roche Inc., priority 1980, dated 1987)
Where a name gives a salt, the structure may show the parent alone. Read-outs that look alike come from different tables or passages of the source.

Experiments:
β1-adrenoceptors = target: T1, β1-adrenoceptors (Rattus norvegicus, UniProt P18090); experiment: 50% reduction in isoprenaline-induced tachycardia in rats (β-blocking activity, heart rate); format: in vivo; settings: iv, read-out: ED50 (HR)
T1 construct: measured in rats by determining the dosage in μg/kg i.v. of substance being tested; from tissue; host or cells: living rat (in vivo, i.v. dosing); heart rate response to isoprenaline
T1 sequence (P18090 whole entry): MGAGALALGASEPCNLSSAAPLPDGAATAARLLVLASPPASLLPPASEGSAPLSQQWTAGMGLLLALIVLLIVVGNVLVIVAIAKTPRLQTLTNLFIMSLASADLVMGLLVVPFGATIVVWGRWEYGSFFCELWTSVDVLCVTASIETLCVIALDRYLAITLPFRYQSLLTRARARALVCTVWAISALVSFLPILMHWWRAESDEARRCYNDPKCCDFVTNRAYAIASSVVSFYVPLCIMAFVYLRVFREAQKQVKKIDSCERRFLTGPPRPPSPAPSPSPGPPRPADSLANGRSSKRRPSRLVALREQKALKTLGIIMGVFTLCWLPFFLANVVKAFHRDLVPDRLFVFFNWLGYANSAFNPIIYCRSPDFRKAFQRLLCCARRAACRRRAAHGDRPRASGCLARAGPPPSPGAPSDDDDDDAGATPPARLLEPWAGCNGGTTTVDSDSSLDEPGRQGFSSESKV

β2-adrenoceptors = target: T2, β2-adrenoceptors (Rattus norvegicus, UniProt P10608); experiment: 50% reduction in isoprenaline-induced depressor responses in rats (β-blocking activity, blood pressure); format: in vivo; settings: iv, read-out: ED50 (BP)
T2 construct: measured in rats by determining the dosage in μg/kg i.v. of substance being tested; from tissue; host or cells: living rat (in vivo, i.v. dosing); vascular depressor response to isoprenaline
T2 sequence (P10608 whole entry): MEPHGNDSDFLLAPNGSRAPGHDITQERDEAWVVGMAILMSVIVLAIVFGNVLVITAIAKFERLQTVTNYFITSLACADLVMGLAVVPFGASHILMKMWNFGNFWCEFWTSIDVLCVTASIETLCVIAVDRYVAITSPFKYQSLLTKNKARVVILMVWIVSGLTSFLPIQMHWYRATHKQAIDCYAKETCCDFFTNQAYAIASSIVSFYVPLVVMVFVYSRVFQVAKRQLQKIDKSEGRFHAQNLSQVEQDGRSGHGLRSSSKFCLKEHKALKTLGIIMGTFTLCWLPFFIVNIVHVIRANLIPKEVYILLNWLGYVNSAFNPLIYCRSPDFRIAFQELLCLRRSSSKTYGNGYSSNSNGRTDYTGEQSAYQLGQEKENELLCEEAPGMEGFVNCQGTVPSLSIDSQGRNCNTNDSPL

[1] = rats, i.v., dosage for 50% reduction in isoprenaline-induced tachycardia
[2] = rats, i.v., dosage for 50% reduction in isoprenaline-induced depressor responses

SMILES	ED50 (β1-adrenoceptors; [1])	ED50 (β2-adrenoceptors; [2])	ED50 (β1-adrenoceptors)	ED50 (β2-adrenoceptors)
CC(C)NCC(O)COc1ccc(OCCOCCc2ccccc2)cc1Cl (centres unmarked) [1-[2-chloro-4-[2-(phenethyloxy)ethoxy]phenoxy]-3-isopropylamino-2-propanolhydrochloride]	0.025 mg/kg	0.834 mg/kg	–	–
CC(C)NCC(O)COc1ccc(OCCOCCc2ccc(F)cc2)cc1 (centres unmarked) [1-[4-[2-(4-fluorophenethyloxy)-ethoxy]phenoxy]-3-isopropylamino-2-propanolhydrochloride]	0.003 mg/kg	> 2 mg/kg	–	–
CC(C)NCC(O)COc1ccc(OCCOCCc2ccccc2)cc1.Cl (centres unmarked) [1-isopropylamino-3-[4-(2-phenethyloxyethoxy)phenoxy]-2-propanol hydrochloride]	–	–	0.015 mg/kg	> 2 mg/kg
CC(C)(C)NCC(O)COc1ccc(OCCOCCc2ccccc2)cc1.Cl (centres unmarked) [1-tert.butylamino-3-[4-(2-phenethyloxyethoxy)phenoxy]-2-propanol hydrochloride]	–	–	0.018 mg/kg	0.979 mg/kg
